{"source": "paper PMC7312527", "about": "(International Journal of Molecular Sciences, 2020)", "key": {"[1]": {"molecular_target": "EeAChE (Electrophorus electricus, UniProt O42275)", "sequence (O42275 24-633)": "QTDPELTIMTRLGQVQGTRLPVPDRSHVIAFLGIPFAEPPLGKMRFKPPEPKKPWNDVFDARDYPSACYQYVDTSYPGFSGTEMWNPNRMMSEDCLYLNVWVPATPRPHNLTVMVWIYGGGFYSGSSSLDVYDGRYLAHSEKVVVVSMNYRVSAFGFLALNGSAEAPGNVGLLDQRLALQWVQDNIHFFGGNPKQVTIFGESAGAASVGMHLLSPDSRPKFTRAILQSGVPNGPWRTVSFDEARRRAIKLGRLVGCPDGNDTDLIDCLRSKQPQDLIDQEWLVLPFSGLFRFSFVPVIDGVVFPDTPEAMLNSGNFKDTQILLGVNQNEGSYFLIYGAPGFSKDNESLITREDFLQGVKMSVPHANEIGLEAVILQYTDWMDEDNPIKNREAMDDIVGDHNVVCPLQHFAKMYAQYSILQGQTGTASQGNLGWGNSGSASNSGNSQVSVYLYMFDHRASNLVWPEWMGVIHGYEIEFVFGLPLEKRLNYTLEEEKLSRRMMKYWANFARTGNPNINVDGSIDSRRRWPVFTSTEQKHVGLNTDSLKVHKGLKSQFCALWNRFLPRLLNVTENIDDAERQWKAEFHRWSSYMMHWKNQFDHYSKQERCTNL", "test": "Kinetic characterization of EeAChE inhibition (Lineweaver–Burk plot)", "type": "biochemical", "conditions": "inhibitor 25, 75, 100 nM", "procedure": "Compound 3e was selected and kinetic studies were performed similar to the enzyme inhibition assay. […]. 0.05–0.5 mM). All processes were assayed in triplicate."}, "[2]": {"test": "in vitro", "type": "cell-based", "conditions": "human, human hepatic stellate cells (HSCs), HSCs, 24 h, read-out: hepatotoxicity (MTT; cell viability as percentage of control)", "procedure": "Human hepatic stellate cells (HSCs, Sciencell) were cultured in the Stellate Cell Medium (Sciencell) with 1% Stellate Cell Growth Supplement, 2% fetal bovine serum (FBS), and 1% penicillin/streptomycin solution (Sciencell). Cells were kept in the incubator (37 °C, 5% CO2). At the beginning of the experiment, cells were seeded in the 96-well plates at a density of 5 × 10^3 cells per well and incubated in the incubator for 24 h. After the incubation period, medium was removed and HSCs were exposed to 100 µL of the compound solutions over a range of concentrations (10–0.1 µM) or nothing but culture medium (blank control). Cells were further incubated for 24 h. At the end, medium was removed, cells were washed with PBS, and 50 µL of the MTT solution (0.75 mg/mL) was added to the cells. Plates were kept in the dark for 2 h at 37 °C. Finally, the MTT solution was removed and 100 µL of DMSO was added to each well. Plates with DMSO were kept at room temperature for 10 min. After this time, 5 µL of Sorensen Buffer was added to each well. Plates were swayed and the absorbance was measured at a wavelength of 570 nm by a microplate reader (Synergy H1, BioTek). The cell viability was expressed as a percentage of the control values (blank control)."}, "[3]": {"tested_on": "SH-SY5Y cells", "test": "Neuroprotection against rotenone/oligomycin A, pre-incubation (MTT)", "type": "cell-based, human", "conditions": "R/O mixture, 0.0001 µM"}, "[4]": {"tested_on": "SH-SY5Y cells", "test": "Neuroprotection against rotenone/oligomycin A, co-incubation (MTT)", "type": "cell-based, human", "conditions": "R/O mixture"}, "[5]": {"tested_on": "histone H3 phosphorylation (Ser10) in human astrocytes", "test": "Global histone H3 phosphorylation (Ser10) colorimetric assay", "type": "cell-based", "conditions": "for amount of phosphorylated H3Ser10 / phosphorylation of H3Ser10 in comparison to 100% control: 24 h", "procedure": "Cell culture: Human astrocytes (HA, Sciencell, USA) were grown in the Astrocyte Cell Medium (Sciencell) supplemented with 2% fetal bovine serum (Sciencell), 1% Astrocyte Cell Growth Supplement (Sciencell), and 1% penicillin/streptomycin solution (Sciencell). Cells were cultured in the incubator at 37 °C and 5% CO2. To start the experiment, cells were seeded at the density of 1.5 × 10^6 cells/well in the flasks and were kept in the incubator (37 °C, 5% CO2) for 24 h. After the incubation period, the medium was removed. Then, the cells were exposed to compound 3c (1 µM and 0.025 µM) or nothing but control medium for 24 h. Then, cells were collected and histone extracts from them were prepared.\nThe levels of histone H3 phosphorylation (Ser10) were determined using a Global Histone H3 phosphorylation (Ser10) colorimetric assay kit (Epigentek) according to the manufacturer’s instructions. In the assay, the phosphorylated histone H3 at ser10 is captured in the wells of a 96-well plate coated with an anti-phospho histone H3 antibody. The captured phosphorylated histone H3 (Ser10) is detected with a labeled detection antibody followed by a color development reagent. […]"}}}
{"smiles": "O=C(NCCCCNc1c2c(nc3ccccc13)CCCC2)c1cc(Cl)cc(Cl)c1", "note": "[Compound 3c]", "values": [{"measurement": "inhibition type of EeAChE", "setting": "[1]", "result": "mixed-type inhibition"}, {"measurement": "viability at 24 h, 0.1 µM", "setting": "[2]; 0.1 µM", "result": 99.9, "unit": "%"}, {"measurement": "viability at 24 h, 1 µM", "setting": "[2]; 1 µM", "result": 95.4, "unit": "%"}, {"measurement": "viability at 24 h, 10 µM", "setting": "[2]; 10 µM", "result": 87.4, "unit": "%"}, {"measurement": "neuroprotection", "setting": "[3]", "result": 2.84, "unit": "%"}, {"measurement": "neuroprotection", "setting": "[4]; 0.0001 µM", "result": 29.10, "unit": "%"}, {"measurement": "neuroprotection", "setting": "[4]; 0.001 µM", "result": 22.11, "unit": "%"}, {"measurement": "neuroprotection", "setting": "[4]; 0.01 µM", "result": 12.90, "unit": "%"}, {"measurement": "neuroprotection", "setting": "[4]; 0.1 µM", "result": 10.99, "unit": "%"}, {"measurement": "amount of phosphorylated H3Ser10", "setting": "[5]; 0.025 µM", "result": 28.26, "unit": "µg/mg"}, {"measurement": "phosphorylation of H3Ser10 in comparison to 100% control", "setting": "[5]; 0.025 µM", "result": 105.64, "unit": "%"}, {"measurement": "DNA damage", "setting": "[5]; 1 µM and 0.025 µM", "result": "not observed"}, {"measurement": "amount of phosphorylated H3Ser10", "setting": "[5]; 1 µM", "result": 29.08, "unit": "µg/mg"}, {"measurement": "phosphorylation of H3Ser10 in comparison to 100% control", "setting": "[5]; 1 µM", "result": 108.69, "unit": "%"}]}
